The text below walks through data of article PMC11671014 (PLOS Pathogens, 2024).

The target of experiment [1] is T1, PfTyrRS (Plasmodium falciparum, UniProt Q8IAR7). Kind of experiment: ATP consumption by PfTyrRS (Kinase Glo). The class given is biochemical. The following applies: PfTyrRS 25 nM, ATP 10 μM, tyrosine 200 μM, cognate tRNA^Tyr 4.8 μM, 37°C 1 h; read-out: Inhibition of PfTyrRS (Kinase Glo) IC50. The procedure: Consumption of ATP was measured using a luciferase-based assay as per the manufacturer’s instructions (Kinase-Glo Luminescent Kinase Assay, Promega).

The test system of experiment [2] is P. falciparum (3D7, ring stage) cultures. The experiment can be described thus: P. falciparum 3D7 72-h growth inhibition, lactate dehydrogenase (PfLDH) assay. The class given is cell-based. The following applies: Plasmodium falciparum, 72 h exposure. On the procedure: Routine analyses of antimalarial activity against P. falciparum 3D7 was tested by TCGLS (Kolkata, India) using the lactate dehydrogenase (PfLDH) growth inhibition assay as previously described. […] P. falciparum strain (3D7) was obtained from BEI Resources.

Experiment [3] has as its target T1, PfTyrRS. Kind of experiment: Differential scanning fluorimetry (DSF) of PfTyrRS. The following applies: for ΔTm at 50 µM: 50 μM sulfamate, tyrosine, PftRNA^Tyr, 37°C 2 h, read-out: PfTyrRS binding (DSF) Delta Tm; for ΔTm at 50 µM / PfTyrRS Tm: ATP; for Kd: estimated from DSF with an irreversible thermal unfolding model, read-out: PfTyrRS binding (DSF) apparent KD; for PfTyrRS Tm: with sulfamate, tyrosine and tRNA, apo 49.9 ± 0.6. The class given is binding. On the procedure:
The effect on ML471 and analogues on the thermal stability of TyrRS enzymes was assayed as previously described. […] SYPRO Orange (Sigma-Aldrich; 5,000X concentrate in DMSO) was added to the reaction mixture at a final concentration of 5X. 25 μL of the sample was added into each well of a 96-well qPCR plate (Applied Biosystems). The plate was sealed and analysed using StepOnePlus Real-Time PCR system (Applied Biosystems). The samples were heated from 20°C to 90°C with a 1% continuous gradient. The thermal unfolding curve was plotted as the first derivative curve of the raw fluorescence values. The melting temperature (Tm), defined as the peak of the first derivative curve, was used to assess the thermal stability of protein-ligand complexes.

For experiment [4], the target named is T2, NAE (NEDD8-activating enzyme) (Homo sapiens, UniProt Q8TBC4).
T2 sequence (Q8TBC4 1-463): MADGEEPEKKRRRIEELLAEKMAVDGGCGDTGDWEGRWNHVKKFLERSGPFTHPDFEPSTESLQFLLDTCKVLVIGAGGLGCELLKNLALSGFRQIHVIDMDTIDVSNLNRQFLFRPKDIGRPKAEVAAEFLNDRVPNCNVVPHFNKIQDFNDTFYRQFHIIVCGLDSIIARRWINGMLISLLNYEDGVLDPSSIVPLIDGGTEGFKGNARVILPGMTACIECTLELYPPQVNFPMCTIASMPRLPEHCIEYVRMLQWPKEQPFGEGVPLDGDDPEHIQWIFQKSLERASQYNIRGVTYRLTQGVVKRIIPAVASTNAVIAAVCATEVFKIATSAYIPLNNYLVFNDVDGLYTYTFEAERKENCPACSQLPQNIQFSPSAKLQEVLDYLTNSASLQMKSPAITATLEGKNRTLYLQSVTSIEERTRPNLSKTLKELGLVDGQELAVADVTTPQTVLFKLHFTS
T2 sequence (Q13564 1-534 partner): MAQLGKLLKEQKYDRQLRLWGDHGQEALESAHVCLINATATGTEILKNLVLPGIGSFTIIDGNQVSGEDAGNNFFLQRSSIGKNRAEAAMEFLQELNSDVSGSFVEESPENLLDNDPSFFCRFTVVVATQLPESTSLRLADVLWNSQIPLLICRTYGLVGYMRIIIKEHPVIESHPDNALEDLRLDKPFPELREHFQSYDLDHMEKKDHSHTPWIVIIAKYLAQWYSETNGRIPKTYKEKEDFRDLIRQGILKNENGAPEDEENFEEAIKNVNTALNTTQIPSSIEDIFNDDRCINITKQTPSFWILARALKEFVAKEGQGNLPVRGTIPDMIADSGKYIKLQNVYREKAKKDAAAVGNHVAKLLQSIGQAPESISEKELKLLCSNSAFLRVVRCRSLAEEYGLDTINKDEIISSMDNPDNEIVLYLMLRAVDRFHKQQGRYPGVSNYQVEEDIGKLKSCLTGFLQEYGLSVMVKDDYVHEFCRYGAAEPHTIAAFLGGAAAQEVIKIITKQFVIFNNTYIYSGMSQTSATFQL
Kind of experiment: NAE E1-E2 transthiolation HTRF assay. The class given is biochemical. From the text: An Homogeneous Time-Resolved Fluorescence (HTRF) enzyme assay was employed to evaluate compound activity against ATG7 as previously described. In this assay, a Flag-tagged ATG8 homolog (GABA type A receptor-associated protein; GABARAP) is activated by ATG7 and then transthiolated to a GST-tagged E2 (ATG3). The product of the enzyme reaction, Flag-GABARAP-ATG3-GST, is quantified by measuring FRET between Europium-Cryptate labelled monoclonal anti-Flag M2 (FLAG M2-Eu cryptate; Revvity, Cat# 61FG2KLB) and […] (Anti-GST IgG conjugated to SureLight-Allophycocyanin) (Revvity, Cat# AD0059G)). The activation and transthiolation of ubiquitin by UAE, activation and transthiolation of NEDD8 by NAE and activation and transthiolation of SUMO by SAE were all assayed in a similar fashion with appropriately tagged ubiquitin-like proteins and E2 conjugating enzymes as described.

Where “and” joins values, the source holds several entries; their conditions need not be identical. Identical values can stand only once.

T1 sequence (Q8IAR7 entry or part of it): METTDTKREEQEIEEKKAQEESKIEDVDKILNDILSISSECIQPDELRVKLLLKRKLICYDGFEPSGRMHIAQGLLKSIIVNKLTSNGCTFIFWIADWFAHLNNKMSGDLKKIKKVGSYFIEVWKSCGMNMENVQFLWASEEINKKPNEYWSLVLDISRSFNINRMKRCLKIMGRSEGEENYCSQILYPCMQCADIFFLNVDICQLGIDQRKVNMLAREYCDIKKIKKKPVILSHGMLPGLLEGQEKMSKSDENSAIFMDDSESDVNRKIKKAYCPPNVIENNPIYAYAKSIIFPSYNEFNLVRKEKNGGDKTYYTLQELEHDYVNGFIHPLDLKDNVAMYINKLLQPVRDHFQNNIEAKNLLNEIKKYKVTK

Consider `Nc1ncnc2c1c(C(F)(F)F)nn2[C@@H]1O[C@H](COS(N)(=O)=O)[C@@H](O)[C@H]1O` [ML107], for which, in experiment [1], the IC50 was 24 ± 5 µM. In experiment [2], it took 0.0042 ± 0.0005 µM to reach half-maximal inhibition (IC50). In experiment [3], the ΔTm at 50 µM was found to be 13.6 ± 0.6 °C, the Kd was 0.0014 µM and the “PfTyrRS Tm” value was 63.5 ± 0.4 °C. Besides, the IC50 in experiment [4] turned out to be 75.3 ± 0.8 µM.
With `Nc1ncnc2c1c(Oc1ccccc1)nn2[C@@H]1O[C@H](COS(N)(=O)=O)[C@@H](O)[C@H]1O` [ML470], the IC50 was 41 ± 23 µM in experiment [1], 0.0448 ± 0.0082 µM in experiment [2] and over 100 µM in experiment [4]. In addition, in experiment [3], the ΔTm at 50 µM was found to be 15.7 ± 0.3 °C. Besides, the Kd in experiment [3] is 0.0006 µM. For the same compound, the “PfTyrRS Tm” value in experiment [3] was 65.5 ± 0.6 °C.
Regarding `CC(C)c1nn([C@@H]2O[C@H](COS(N)(=O)=O)[C@@H](O)[C@H]2O)c2ncnc(N)c12` [ML471, ((2R,3S,4R,5R)-5-(4-amino-3-isopropyl-1H-pyrazolo[3,4-d]pyrimidin-1-yl)-3,4-dihydroxytetrahydrofuran-2-yl)methyl sulfamate], the IC50 in experiment [1] came out at 1.4 ± 0.2 µM. The compound further gave an IC50 in experiment [2] of 0.0015 ± 0.0002 µM. Moreover, in experiment [3], the ΔTm at 50 µM was determined as 18 ± 0.1 °C, the Kd was 0.0002 µM and the “PfTyrRS Tm” value turned out to be 67.9 ± 0.4 °C. Moreover, in experiment [4], the IC50 was over 100 µM and the “activity against NAE (in words)” value was “no or very little activity”.
In experiment [2], `CCOc1nn([C@@H]2O[C@H](COS(N)(=O)=O)[C@@H](O)[C@H]2O)c2ncnc(N)c12` [ML676] registered a 50% inhibitory concentration (IC50) of 0.0028 ± 0.0002 µM. Further, in experiment [3], the ΔTm at 50 µM worked out at 15.69 ± 0.01 °C, the Kd is 0.0006 µM and the “PfTyrRS Tm” value was determined as 65.5 ± 0.6 °C. For the same compound, half-maximal inhibition in experiment [4] (IC50) required 66.6 ± 1.1 µM.
For `CCc1nn([C@@H]2O[C@H](COS(N)(=O)=O)[C@@H](O)[C@H]2O)c2ncnc(N)c12` [ML681], the concentration for half-maximal inhibition (IC50) is 23 ± 8 µM in experiment [1], 0.0034 ± 0.0001 µM in experiment [2] and 35.3 ± 0.8 µM in experiment [4]. Further, the ΔTm at 50 µM in experiment [3] was 16.4 ± 0.1 °C. In experiment [3], the Kd is 0.0004 µM. Moreover, the “PfTyrRS Tm” value in experiment [3] is 66.3 ± 0.5 °C.
For `CC(C)Oc1nn([C@@H]2O[C@H](COS(N)(=O)=O)[C@@H](O)[C@H]2O)c2ncnc(N)c12` [ML723], the half-maximal inhibitory concentration (IC50) in experiment [1] worked out at 14 ± 5 µM. In experiment [2], it took 0.0025 ± 0.0006 µM to reach half-maximal inhibition (IC50). Further, in experiment [3], the ΔTm at 50 µM is 16.2 ± 0.1 °C, the Kd was 0.0005 µM and the “PfTyrRS Tm” value was found to be 66.1 ± 0.7 °C. This compound displayed a half-maximal inhibitory concentration (IC50) in experiment [4] of over 100 µM.
As for `Nc1ncnc2c1c(OC(F)F)nn2[C@@H]1O[C@H](COS(N)(=O)=O)[C@@H](O)[C@H]1O` [ML901], the 50% inhibitory concentration (IC50) in experiment [1] is 13.4 µM and 13 µM. In addition, the midpoint of inhibition in experiment [2], the IC50, lay at 0.0028 ± 0.0002 µM. Besides, in experiment [3], the ΔTm at 50 µM came out at 15.2 ± 0.1 °C, the Kd was 0.0007 µM and the “PfTyrRS Tm” value was found to be 65.1 ± 0.5 °C. Also, the IC50 in experiment [4] was determined as 28 ± 0.6 µM.
